Assays:
[1] = test system: barnyardgrass; experiment: Test A pre-/postemergence herbicide test; format: in vivo, Echinochloa crus-galli
Procedure, shortened: (§1)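 Plants are held in greenhouse about ten days after treatment, then compared with untreated controls and scored 0 (no effect) to 100 (complete control). Preemergence dosing is a directed soil spray on sown sandy loam; postemergence dosing is spray to runoff at 2–10 cm height.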

[2] = test system: large crabgrass; experiment: Test A pre-/postemergence herbicide test; format: in vivo, Digitaria sanguinalis
Procedure, shortened: as §1

[3] = test system: giant foxtail; experiment: Test A pre-/postemergence herbicide test; format: in vivo, Setaria faberi
Procedure, shortened: as §1

[4] = test system: bermudagrass; experiment: Test C pre-/postemergence herbicide test; format: in vivo, Cynodon dactylon; conditions: for Plant response rating, Bermudagrass: preemergence; for Bermudagrass plant response rating: Preemergence, 500 g ai/ha
Procedure, shortened: (§2)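 Greenhouse-grown plants were evaluated visually 12 to 14 days after treatment, with 100 meaning complete control and 0 no effect. Application was preemergence, or postemergence at 2 to 18 cm.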

[5] = test system: large crabgrass; experiment: Test C pre-/postemergence herbicide test; format: in vivo, Digitaria sanguinalis; conditions: preemergence
Procedure, shortened: as §2

[6] = test system: giant foxtail; experiment: Test C pre-/postemergence herbicide test; format: in vivo, Setaria faberi; conditions: preemergence
Procedure, shortened: as §2

[7] = test system: kochia; experiment: Test C pre-/postemergence herbicide test; format: in vivo, Kochia scoparia; conditions: preemergence
Procedure, shortened: as §2

[8] = test system: lambsquarters; experiment: Test C pre-/postemergence herbicide test; format: in vivo, Chenopodium album; conditions: preemergence
Procedure, shortened: as §2

[9] = test system: soybean; experiment: Test C pre-/postemergence herbicide test; format: in vivo, Glycine max; conditions: preemergence
Procedure, shortened: as §2

[10] = test system: common (oilseed) sunflower; experiment: Test C pre-/postemergence herbicide test; format: in vivo, Helianthus annuus; conditions: preemergence
Procedure, shortened: as §2

[11] = test system: rice; experiment: Test C flooded paddy test; format: in vivo, Oryza sativa; conditions: for Plant response rating, Rice: 500 g ai/ha, visual rating after 12 to 14 days
Procedure, shortened: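 Plants were grown to the 1- to 4-leaf stage (2–18 cm) and then treated postemergence, or grown to the 2-leaf stage for the flooded paddy test. They were held in a greenhouse for 12 to 14 days and then scored by eye against controls, where 0 is no effect and 100 is complete control.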

[12] = test system: ducksalad; experiment: Test C flooded paddy test; format: in vivo, Heteranthera limosa; conditions: for Plant response rating, Ducksalad: 500 g ai/ha, visual rating after 12 to 14 days
[13] = test system: barnyardgrass; experiment: Test C flooded paddy test; format: in vivo, Echinochloa crus-galli; conditions: for Plant response rating, Barnyardgrass: 500 g ai/ha, visual rating after 12 to 14 days
Procedure, shortened: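 Visual rating, 0 (no effect) to 100 (complete control), vs. controls at 12–14 d in greenhouse. Postemergence: 1–4-leaf plants, 2–18 cm. Paddy: flooded, barnyardgrass at 2-leaf stage.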

[14] = Postemergence, 500 g ai/ha, 0 to 100 scale, 0 no effect, 100 complete control
[15] = Postemergence, 2000 g ai/ha, 0 to 100 scale, 0 no effect, 100 complete control
[16] = Preemergence, 2000 g ai/ha, visual rating, 0 to 100 scale (0 no effect, 100 complete control)
[17] = preemergence, 500 g ai/ha, visual injury, 0 to 100 scale (0 no effect, 100 complete control)
[18] = 62 g ai/ha, scale 0 to 100, 0 no effect, 100 complete control
[19] = 125 g ai/ha, scale 0 (no effect) to 100 (complete control), visual, 12 to 14 days
[20] = scale 0 to 100, 0 no effect, 100 complete control
[21] = 500 g ai/ha, scale 0 to 100 (0 no effect, 100 complete control), visual, 12 to 14 days
[22] = 62 g ai/ha, scale 0 to 100 (0 no effect, 100 complete control)
[23] = 125 g ai/ha, scale 0 to 100 (0 no effect, 100 complete control)
[24] = 250 g ai/ha, scale of 0 to 100, 0 is no effect, 100 is complete control
[25] = scale 0 to 100 (0 no effect, 100 complete control)

CCNC(=O)c1cccc(NC(=O)c2sc(C(C)(C)C)nc2CC)c1 [Compound 210]
Barnyardgrass plant response rating [1, 14]: 80 | Plant response rating, Barnyardgrass [1, 15]: 80 | Barnyardgrass plant response rating [1, 16]: 90 | Barnyardgrass plant response rating [1, 17]: 85 | Crabgrass, Large plant response rating [2, 14]: 40 | Plant response rating, Crabgrass, Large [2, 15]: 65 | Crabgrass, Large plant response rating [2, 16]: 100 | Crabgrass, Large plant response rating [2, 17]: 90 | Foxtail, Giant plant response rating [3, 14]: 40 | Plant response rating, Foxtail, Giant [3, 15]: 75 | Foxtail, Giant plant response rating [3, 16]: 100 | Foxtail, Giant plant response rating [3, 17]: 100 | Plant response rating, Bermudagrass [4, 18]: 80 | Plant response rating, Bermudagrass [4, 19]: 80 | Plant response rating, Bermudagrass ([4]; 250 g ai/ha, scale 0-100): 100 | Bermudagrass plant response rating [4, 20]: 100 | Plant response rating, Crabgrass, Large ([5]; 62 g ai/ha, scale 0 to 100): 80 | Plant response rating, Crabgrass, Large [5, 19]: 80 | Plant response rating, Crabgrass, Large ([5]; 250 g ai/ha, scale 0-100): 95 | Plant response rating, Crabgrass, Large [5, 21]: 100 | Plant response rating, Foxtail, Giant ([6]; 62 g ai/ha, scale 0 to 100): 0 | Plant response rating, Foxtail, Giant [6, 19]: 10 | Plant response rating, Foxtail, Giant ([6]; 250 g ai/ha, scale 0-100): 10 | Plant response rating, Foxtail, Giant [6, 21]: 60 | Plant response rating, Kochia ([7]; 62 g ai/ha, scale 0 to 100): 0 | Plant response rating, Kochia [7, 19]: 90 | Plant response rating, Kochia ([7]; 250 g ai/ha, scale 0-100): 90 | Plant response rating, Kochia [7, 21]: 95 | Plant response rating, Lambsquarters ([8]; 62 g ai/ha, scale 0 to 100): 100 | Plant response rating, Lambsquarters [8, 19]: 100 | Plant response rating, Lambsquarters ([8]; 250 g ai/ha, scale 0-100): 100 | Plant response rating, Lambsquarters [8, 21]: 100 | Plant response rating, Soybean ([9]; 62 g ai/ha, scale 0 to 100): 0 | Plant response rating, Soybean [9, 19]: 0 | Plant response rating, Soybean ([9]; 250 g ai/ha, scale 0-100): 0 | Plant response rating, Soybean [9, 21]: 0 | Plant response rating, Sunflower ([10]; 62 g ai/ha, scale 0 to 100): 0 | Plant response rating, Sunflower [10, 19]: 0 | Plant response rating, Sunflower ([10]; 250 g ai/ha, scale 0-100): 0 | Plant response rating, Sunflower [10, 21]: 0 | Rice plant response rating [11, 22]: 35 | Rice plant response rating [11, 23]: 55 | Rice plant response rating [11, 24]: 75 | Plant response rating, Rice [11, 25]: 75 | Ducksalad plant response rating [12, 22]: 40 | Ducksalad plant response rating [12, 23]: 55 | Ducksalad plant response rating [12, 24]: 85 | Plant response rating, Ducksalad [12, 25]: 90 | Barnyardgrass plant response rating [13, 22]: 50 | Barnyardgrass plant response rating [13, 23]: 70 | Barnyardgrass plant response rating [13, 24]: 85 | Plant response rating, Barnyardgrass [13, 25]: 85

CCc1nn(C(C)(C)C)cc1C(=O)Nc1cc(C(=O)N(CC)CC)ccc1F [Compound 223]
Barnyardgrass plant response rating [1, 14]: 10 | Plant response rating, Barnyardgrass [1, 15]: 55 | Barnyardgrass plant response rating [1, 16]: 80 | Barnyardgrass plant response rating [1, 17]: 55 | Crabgrass, Large plant response rating [2, 14]: 20 | Plant response rating, Crabgrass, Large [2, 15]: 25 | Crabgrass, Large plant response rating [2, 16]: 90 | Crabgrass, Large plant response rating [2, 17]: 90 | Foxtail, Giant plant response rating [3, 14]: 10 | Plant response rating, Foxtail, Giant [3, 15]: 10 | Foxtail, Giant plant response rating [3, 16]: 90 | Foxtail, Giant plant response rating [3, 17]: 75 | Plant response rating, Bermudagrass [4, 18]: 80 | Plant response rating, Bermudagrass [4, 19]: 80 | Plant response rating, Bermudagrass ([4]; 250 g ai/ha, scale 0-100): 100 | Bermudagrass plant response rating [4, 20]: 100 | Plant response rating, Crabgrass, Large ([5]; 62 g ai/ha, scale 0 to 100): 100 | Plant response rating, Crabgrass, Large [5, 19]: 100 | Plant response rating, Crabgrass, Large ([5]; 250 g ai/ha, scale 0-100): 100 | Plant response rating, Crabgrass, Large [5, 21]: 100 | Plant response rating, Foxtail, Giant ([6]; 62 g ai/ha, scale 0 to 100): 40 | Plant response rating, Foxtail, Giant [6, 19]: 70 | Plant response rating, Foxtail, Giant ([6]; 250 g ai/ha, scale 0-100): 100 | Plant response rating, Foxtail, Giant [6, 21]: 100 | Plant response rating, Kochia ([7]; 62 g ai/ha, scale 0 to 100): 85 | Plant response rating, Kochia [7, 19]: 90 | Plant response rating, Kochia ([7]; 250 g ai/ha, scale 0-100): 100 | Plant response rating, Kochia [7, 21]: 100 | Plant response rating, Lambsquarters ([8]; 62 g ai/ha, scale 0 to 100): 95 | Plant response rating, Lambsquarters [8, 19]: 100 | Plant response rating, Lambsquarters ([8]; 250 g ai/ha, scale 0-100): 100 | Plant response rating, Lambsquarters [8, 21]: 100 | Plant response rating, Soybean ([9]; 62 g ai/ha, scale 0 to 100): 0 | Plant response rating, Soybean ([9]; 250 g ai/ha, scale 0-100): 80 | Plant response rating, Soybean [9, 21]: 90 | Plant response rating, Sunflower ([10]; 62 g ai/ha, scale 0 to 100): 0 | Plant response rating, Sunflower ([10]; 250 g ai/ha, scale 0-100): 0 | Plant response rating, Sunflower [10, 21]: 30 | Rice plant response rating [11, 22]: 0 | Rice plant response rating [11, 23]: 0 | Rice plant response rating [11, 24]: 45 | Plant response rating, Rice [11, 25]: 75 | Ducksalad plant response rating [12, 22]: 0 | Ducksalad plant response rating [12, 23]: 0 | Ducksalad plant response rating [12, 24]: 25 | Plant response rating, Ducksalad [12, 25]: 55 | Barnyardgrass plant response rating [13, 22]: 0 | Barnyardgrass plant response rating [13, 23]: 0 | Barnyardgrass plant response rating [13, 24]: 0 | Plant response rating, Barnyardgrass [13, 25]: 45
